According to patent US20170298347A1, “NOVEL FUSION-CIRCULAR RNAs AND USES THEREOF” (BETH ISRAEL DEACONESS MEDICAL CENTER, priority 2016, published 2017):

Tested on: K562 cells
Assay: Apoptosis (AnnexinV/7-AAD) in K562 cells treated with Ara-C or ATO
Type: cell-based, human
Conditions: K562 transduced with empty vector; ATO 1 μM, Ara-C 0.5 μM
Description: K562 cells (Lozzio and Lozzio, 1979) were then transduced with viral vectors expressing f-circM9. Cells transduced only with an empty vector were used as control. F-circM9-expressing cells were sorted for a pure population and were subsequently subjected to treatment with Ara-C and ATO. […] On the contrary, clear differences were noticed in treated cells.
THP-1, K562, U937, HL-60, Kasumi and NB4 cell lines were maintained in RPMI medium supplemented with 10% FBS. MEFs Arf−/− cells were grown in DMEM supplemented with 10% FBS. Primary leukemic cells transduced with MLL/AF9 cDNA were maintained in StemSpan medium (Stem Cell Technologies) supplemented with IL6 (15 ng/ml), IL3 (15 ng/ml) TPO (50 ng/ml) and SCF (50 ng/ml) during the transduction with retroviral vectors. Cells were grown at 37° C. in a 5% CO2 humidified incubator. Fractionation of the cells to separate nucleus and cytoplasm has been performed using PARIS-kit (Ambion) following the manufacturer's instructions. The efficiency of the separation of the 2 fractions was assessed by Western blot analysis of β-actin (cytosol) and […] (nucleus). […]
Apoptotic cells were analyzed with 7AAD and Annexin-V-APC. Cells were stained for 15 minutes with both markers and then analyzed using LRSII (BD, Pharmingen).

Compound	apoptosis upon drug treatment
Arsenic trioxide [ATO]	signs of apoptosis
Nc1ccn([C@@H]2O[C@H](CO)[C@@H](O)[C@@H]2O)c(=O)n1 [Ara-C, cytarabine]	signs of apoptosis
